Tested on: rituximab binding mimetope peptide
Assay: Peptide based ELISA: biotinylated mimetope peptides on streptavidin/neutravidin plates capture the antibody
Conditions: biotinylated peptide on coated plate, peroxidase labeled secondary anti-Fc antibody
Experimental: FIG. 2 (A) illustrates one embodiment of the lateral flow assay validating that rituximab binding mimetope peptide function in immunoassays and competes with the native antigen (CD20). FIG. 2 (A) is a standard curve for rituximab by peptide based ELISA. Biotinylated peptides are bound onto neutravidin coated ELISA plates. Rituximab is diluted in TBST. […] The solid line indicates the mean of the buffer control and the dashed line represents the mean +10 times the SD of the buffer control.
To confirm that a synthetic peptide captures the antibody, ELISAs were performed. Peptides biotinylated at the C-terminus were coated onto streptavidin coated plates and then incubated with a dilution serious of antibody. Binding was detected via a peroxidase labeled secondary anti-Fc antibody. Specificity was confirmed by lack of signal from either total Ig or using a different antibody. […] The antibody was fluorescently labeled and the cell staining evaluated with or without a molar excess of the presumed mimetope as well as control peptides. […]
FIG. 2 illustrates one embodiment of the lateral flow assay validating that rituximab binding mimetope peptide function in immunoassays and competes with the native antigen (CD20). […] Fluorescently labeled rituximab was incubated with primary CLL cells and evaluated by flow cytometry (solid line). […]

sensitivity of peptide ELISA for the antibody: 4 µg/mL
Substance: rituximab: monoclonal antibody; native antigen CD20
